Data from paper PMC3625477 (Journal of acquired immune deficiency syndromes (1999), 2013).
Where “and” joins values, the source holds several entries; their conditions need not be identical. Identical values can stand only once. Like-named read-outs stand apart in the source and are kept apart here.

How the values were obtained:
wild type virus (HIV) = conditions: unbound lopinavir; cited from earlier work
wild-type virus = conditions: total lopinavir; cited from earlier work
[1] = format: in vivo, HIV-infected pregnant women; conditions: for concentration at 12 h / AUC(0-t) / Cmax: female, human, plasma; for concentration at 12 h: oral, C12h; for concentration at 12 h / AUC(0-t) / Cmax / C12h / Cl: protein unbound, median; for AUC(0-t) / Cmax: po; for AUC(0-t): AUC0–12h
Total = format: in vivo, HIV-infected pregnant women; conditions: for concentration at 12 h / AUC(0-t) / Cmax: plasma; for concentration at 12 h: oral, C12h; for AUC(0-t) / Cmax: po; for AUC(0-t): AUC0–12h
[2] = system: blood plasma proteins albumin and alpha-1-acid-glycoprotein (AAG); conditions: cited from earlier work
[3] = 8 wks postpartum (PK4), LPV/RTV 400mg/100mg twice daily
[4] = 20–24 wks (PK1), LPV/RTV 400mg/100mg twice daily
[5] = 30 wks (PK2), LPV/RTV 400mg/100mg twice daily
[6] = 32 wks (PK3), LPV/RTV 500mg/125mg twice daily
[7] = female, human, total (bound + unbound), 8 wks postpartum (PK4), LPV/RTV 400mg/100mg twice daily, median
[8] = female, human, total (bound + unbound), 20–24 wks (PK1), LPV/RTV 400mg/100mg twice daily, median
[9] = female, human, total (bound + unbound), 30 wks (PK2), LPV/RTV 400mg/100mg twice daily, median
[10] = female, human, total (bound + unbound), 32 wks (PK3), LPV/RTV 500mg/125mg twice daily, median
[11] = total (bound + unbound), 8 wks postpartum (PK4), LPV/RTV 400mg/100mg twice daily, median
[12] = total (bound + unbound), 20–24 wks (PK1), LPV/RTV 400mg/100mg twice daily, median
[13] = total (bound + unbound), 30 wks (PK2), LPV/RTV 400mg/100mg twice daily, median
[14] = total (bound + unbound), 32 wks (PK3), LPV/RTV 500mg/125mg twice daily, median

For `Cc1cccc(C)c1OCC(=O)N[C@@H](Cc1ccccc1)[C@@H](O)C[C@H](Cc1ccccc1)NC(=O)[C@H](C(C)C)N1CCCNC1=O` [Lopinavir, lopinavir], the “protein-unbound IC50 (50% inhibitory concentration)” value (wild type virus (HIV)) is given as 0.64 ng/mL and 0.64 to 0.77 ng/mL, the minimum effective concentration (wild-type virus) is given as 1 µg/mL and the “increase in protein-unbound AUC0–12h with the increased dose” value ([1]; PK2 vs PK3) is given as < 15%. The “share of all unbound concentrations below the wild type IC50 of 0.00064 µg/mL” value ([1]; all visits) was “Less than 2%”, the concentration at 12 h [1, 3] was 160 ng/mL and the concentration at 12 h [1, 4] was 150 ng/mL. For the same compound, the concentration at 12 h [1, 5] was 100 ng/mL, the concentration at 12 h [1, 6] was 120 ng/mL and the AUC(0-t) [1, 3] was 2600 ng·h/mL. It also gave an AUC(0-t) [1, 4] of 1600 ng·h/mL, an AUC(0-t) [1, 5] of 1600 ng·h/mL and an AUC(0-t) [1, 6] of 1800 ng·h/mL. It also gave a Cmax [1, 3] of 280 ng/mL, a Cmax [1, 4] of 180 ng/mL and a Cmax [1, 5] of 210 ng/mL. The Cmax [1, 6] was 240 ng/mL, the C12h [1, 3] was 160 ng/mL and the Cl [1, 3] was 92 L/h. The C12h [1, 4] was 150 ng/mL, the Cl [1, 4] was 123 L/h and the C12h [1, 5] was 100 ng/mL. The Cl [1, 5] was 155 L/h, the C12h [1, 6] was 120 ng/mL and the Cl [1, 6] was 131 L/h. The “postpartum total C12h higher than at any point during pregnancy” value (Total; female, human, in vivo, 12 h) was 38–80% and the “women with total lopinavir C12h below 4 µg/mL” value (Total; second trimester, standard-dose LPV/RTV, 12 participants) was 33%.
For `CC(C)c1nc(CN(C)C(=O)N[C@H](C(=O)N[C@@H](Cc2ccccc2)C[C@H](O)[C@H](Cc2ccccc2)NC(=O)OCc2cncs2)C(C)C)cs1` [Ritonavir, ritonavir], the “bound to the blood plasma proteins” value [2] is given as 98–99%, the concentration at 12 h [1, 3] is given as 30 ng/mL and the concentration at 12 h [1, 4] is given as 20 ng/mL. It also gave a concentration at 12 h [1, 5] of 20 ng/mL, a concentration at 12 h [1, 6] of 20 ng/mL and an AUC(0-t) [1, 3] of 500 ng·h/mL. The AUC(0-t) [1, 4] was 400 ng·h/mL, the AUC(0-t) [1, 6] was 300 ng·h/mL and the Cmax [1, 3] was 80 ng/mL. The Cmax [1, 4] was 60 ng/mL, the Cmax [1, 5] was 50 ng/mL and the Cmax [1, 6] was 50 ng/mL. It also gave a Cl [1, 3] of 127 L/h, a Cl [1, 4] of 169 L/h and a Cl [1, 5] of 261 L/h. The Cl [1, 6] was 306 L/h, the concentration at 12 h (Total; [7]) was 280 ng/mL and the concentration at 12 h (Total; [8]) was 120 ng/mL. It also gave a concentration at 12 h (Total; [9]) of 120 ng/mL, a concentration at 12 h (Total; [10]) of 150 ng/mL and an AUC(0-t) (Total; [8]) of 2500 ng·h/mL. The AUC(0-t) (Total; [9]) was 2300 ng·h/mL, the AUC(0-t) (Total; [10]) was 2400 ng·h/mL and the Cmax (Total; [7]) was 620 ng/mL. It also gave a Cmax (Total; [8]) of 350 ng/mL, a Cmax (Total; [9]) of 300 ng/mL and a Cmax (Total; [10]) of 360 ng/mL. The “AUC0–12h” value (Total; [11]) was 5200 ng·h/mL, the C12h (Total; [11]) was 280 ng/mL and the “Cl (apparent oral clearance)” value (Total; [11]) was 12 L/h. The C12h (Total; [12]) was 120 ng/mL, the “Cl (apparent oral clearance)” value (Total; [12]) was 29 L/h and the C12h (Total; [13]) was 120 ng/mL. For the same compound, the “Cl (apparent oral clearance)” value (Total; [13]) was 33 L/h, the C12h (Total; [14]) was 150 ng/mL and the “Cl (apparent oral clearance)” value (Total; [14]) was 37 L/h.
